In US8642630B2, “Endogeneous repair factor production accelerators” (Ono Pharmaceutical Co., Ltd., priority 2002, dated 2014):
Where a name gives a salt, the structure may show the parent alone.

Assays:
[1] = tested on: vascular endothelial cells; conditions: cited from earlier work
[2] = tested on: mouse sponge transplantation model; experiment: Angiogenesis test using mouse sponge transplantation model, Example 8; type: in vivo; conditions: 14 days of repeated administration
Method: Under anesthesia, dorsal part of a mouse was incised and a discus urethane sponge (about 5 mm in thickness and 13 mm in diameter) was embedded therein. Administration of the agent was carried out by topically administering it directly into the sponge once a day for a total of 14 times starting on the day of the sponge transplantation model preparation, or on the operation-completed day and 7th day thereafter. On the 15th day after the sponge transplantation, the sponge containing granulation tissue was extracted and observed with the naked eye, and then its wet mass was measured. In addition, this was mixed with distilled water of 4 times larger amount than the wet mass, homogenized and centrifuged, and then the supernatant was subjected to the measurement of the hemoglobin content using Hemoglobin 13-Test Wako (manufactured by Wako Pure Chemical Industries).
• The polylactic acid-glycolic acid copolymer used in Preparation Example 2 was suspended in 0.2 w/v % Tween 80 solution (0.05 ml). In this connection, amount of the polylactic acid-glycolic acid copolymer is identical to the amount contained in Compound 1 MS (200 μg). Compound 1 (20 μg) Group: • Compound 1 (20 μg) was suspended in 0.2 w/v % Tween 80 solution (0.05 ml). Compound 1 (40 μg) Group:
Compound 1 (40 μg) was suspended in 0.2 w/v % Tween 80 solution (0.05 ml).
• Compound 1 (200 μg) was suspended in 0.2 w/v % Tween 80 solution (0.05 ml). Compound 1 MS (200 μg) group: • The microsphere preparation produced in Preparation Example 2 containing […] of Compound 1 was suspended in 0.2 w/v % Tween 80 solution (0.05 ml). Compound 1 MS (400 μg) Group: • The microsphere preparation produced in Preparation Example 2 containing 400 μg of Compound 1 was suspended in 0.2 w/v % Tween 80 solution (0.05 ml). Compound 3 (20 μg) Group: • Compound 3 (20 μg) was suspended in 0.2 w/v % Tween 80 solution (0.05 ml).

[3] = tested on: normal human umbilical cord vein vascular endothelial cells and normal human skin fibroblasts; experiment: Measurement of angiogenesis acceleration action (in vitro), hollow organ formation, Example 9; type: cell-based; conditions: 10 days of culturing, FIG. 5
Method: An angiogenesis kit (manufactured by Kurabo; constituted from normal human umbilical cord vein vascular endothelial cells and normal human skin fibroblasts) was cultured for 3 hours, and then the culture medium (the medium for angiogenesis use attached to the angiogenesis kit was used as the culture medium and cultured at 37° C. under a moist environment of 5% carbon dioxide-95% air, and a carbon dioxide incubator BNA-121D was used as the incubator) was changed and an agent to be tested was added to each well (0.5 ml/well). The medium exchange was carried out also on the 3rd, 6th and 8th days after commencement of the culturing and the fresh agent to be tested was added. The kind and concentration of the agent to be tested were untreated; DMSO: 0.1%; α-CD: 0.0118, 0.118 and 1.18 mg/ml; PGE2-αCD: 1, 10 and 100 nmol/l; Compound 3 (EP2 agonist), Compound 4 (EP4 agonist), EP1 agonist and EP3 agonist: 1, 10 and 100 nmol/l, VEGF: 0.1, 1 and 10 ng/ml; and HGF: 0.1, 1 and 10 ng/ml, and culturing was carried out by using 3 wells for each concentration. Fixation was carried out 10 days after the commencement of culturing, and staining of hollow organ with anti-CD31 antibody was carried out by using a hollow organ staining kit (manufactured by Kurabo). As the evaluation, Chalkley Grid (a grid lens, Kurabo) was mounted on the eyepiece of a microscope, and the hollow organ formation was evaluated by counting intersections of the randomly arrange points of Chalkley Grid with the formed hollow organ (by referring to the evaluation method of J. Pathol., 177, 275-283 (1995)). The counting was carried out at 12 positions per well, and the total was calculated.
In this connection, Compound 3 as an EP2 agonist ((5Z,9β,11α,13E)-17,17-propano-11,16-dihydroxy-9-chloro-20-norprost-5,13-dienoic acid) was dissolved in dimethyl sulfoxide (DMSO) to prepare 10^−4, 10^−5 and 10^−6 mol/l solutions which were then used by diluting 1/1000 time with the culture medium.
Compound 4 as an EP4 agonist ((11α,13E,15α)-9-oxo-11,15-dihydroxy-16-(3-methoxymethylphenyl)-17,18,19,20-tetranor-5-thiaprost-13-enoic acid) was dissolved in dimethyl sulfoxide (DMSO) to prepare 10^−4, 10^−5 and 10^−6 mol/l solutions which were then used by diluting 1/1000 time with the culture medium.
The EP1 agonist ((13E)-(11α,15S,17S)-2,5-ethano-6,9-dioxo-11,15-dihydroxy-17,20-dimethylprost-13-enoic acid; the compound described in Example 1 in the specification of JP-A-11-322709) was dissolved in dimethyl sulfoxide (DMSO) to prepare 10^−4, 10^−5 and 10^−6 mol/l solutions which were then used by diluting 1/1000 time with the culture medium.
The EP3 agonist (11α,15α-dimethoxy-9-oxoprost-5Z,13E-dienoic acid; the compound described in Example 1 in the specification of WO98/34916) was dissolved in dimethyl sulfoxide (DMSO) to prepare 10^−4, 10^−5 and 10^−6 mol/l solutions which were then used by diluting 1/1000 time with the culture medium.
The PGE2-αCD was dissolved in distilled water for injection to prepare 10^−4, 10^−5 and 10^−6 mol/l solutions which were then used by diluting 1/1000 time with the culture medium.
As the VEGF (vascular endothelial growth factor), the 2 μg/ml solution of VEGF contained in the angiogenesis control reagent kit of Kurabo was diluted with the culture medium and used.
As the HGF (human hepatocyte growth factor), the 5 μg/ml solution of HGF purchased from R & D System-Funakoshi was diluted with the culture medium and used.
The counts of hollow organ formation in the untreated wells were compared with those of the wells treated with respective concentrations of test samples by Dunnett's test (two-sided test). The significance level was set to 5%.
(§1) In this connection, the data were shown by average value of 3 wells and standard deviation.

HGF = experiment: Endogenous repair factor releasing action (in vitro), HGF by ELISA, Example 10; type: cell-based, human; conditions: 100 nmol/l
Method: (§2) An angiogenesis kit (manufactured by Kurabo; constituted from normal human umbilical cord vein vascular endothelial cells and normal human skin fibroblasts) was cultured for 3 hours, and then the culture medium (the medium for angiogenesis use attached to the angiogenesis kit was used as the culture medium and cultured at 37° C. under a moist environment of 5% carbon dioxide-95% air, and a carbon dioxide incubator BNA-121D was used as the incubator) was changed and an agent to be tested was added to each well (0.5 ml/well). HGF and VEGF concentrations in the culture supernatants were measured 3 days after the commencement of the culturing. Kinds and concentrations of the agent to be tested were untreated; DMSO: 0.1%; PGE1-αCD: 100 nmol/l; PGE2-αCD: 100 nmol/l; and Compound 3 (EP2 agonist) and Compound 4 (EP4 agonist): 100 nmol/l, and the culturing was carried out by using 3 wells for each concentration. The HGF and VEGF concentrations were measured by using an ELISA kit (R % D system-Funakoshi).
(§3) In this connection, Compound 3 as an EP2 agonist ((5Z,9β,11α,13E)-17,17-propano-11,16-dihydroxy-9-chloro-20-norprost-5,13-dienoic acid) was dissolved in dimethyl sulfoxide (DMSO) to prepare a 10^−4 mol/l solution which was then used by diluting 1/1000 time with the culture medium.
(§4) Compound 4 as an EP4 agonist ((11α,13E,15α)-9-oxo-11,15-dihydroxy-16-(3-methoxymethylphenyl)-17,18,19,20-tetranor-5-thiaprost-13-enoic acid) was dissolved in dimethyl sulfoxide (DMSO) to prepare a […] solution which was then used by diluting 1/1000 time with the culture medium.
(§5) The PGE1-αCD and PGE2-αCD were dissolved in distilled water for injection to prepare 10^−4 mol/l solutions which were then used by diluting 1/1000 time with the culture medium.
(§6) HGF and VEGF concentrations in the supernatants of the solvent control group were compared with those of the agent-treated groups by Dunnett's test (two-sided test). The significance level was set to 5%.
as §1

VEGF = experiment: Endogenous repair factor releasing action (in vitro), VEGF by ELISA, Example 10; type: cell-based, human; conditions: 100 nmol/l
Method: as §2, §3, §4, §5, §6, §1

[4] = tested on: normal human umbilical cord vein vascular endothelial cells and normal human skin fibroblasts; experiment: Measurement of angiogenesis acceleration action (in vitro), hollow organ formation, Example 1; type: cell-based; conditions: 10 ng/ml; 10 days of culturing; FIG. 1
Method: An angiogenesis kit (manufactured by Kurabo; constituted from normal human umbilical cord vein vascular endothelial cells and normal human skin fibroblasts) was cultured for 3 hours, and then the culture medium (the medium for angiogenesis use attached to the angiogenesis kit was used as the culture medium and cultured at 37° C. under a moist environment of 5% carbon dioxide-95% air, and a carbon dioxide incubator BNA-121D was used as the incubator) was changed and an agent to be tested was added to each well (0.5 ml/well). The medium exchange was carried out also on the 3rd, 6th and 8th days after commencement of the culturing and the fresh agent to be tested was added. The kind and concentration of the agent to be tested were untreated, solvent (DMSO) 0.1%, Compound 1 10^−9, 10^−8 and 10^−7 mol/l, VEGF-A 0.1, 1 and 10 ng/ml and HGF 0.1, 1 and 10 ng/ml, and the culturing was carried out by using 3 wells for each concentration. Fixation was carried out 10 days after the commencement of culturing, and staining of hollow organ with anti-CD31 antibody was carried out by using a hollow organ staining kit (manufactured by Kurabo). As the evaluation, Chalkley Grid (a grid lens, manufactured by Kurabo) was mounted on the eyepiece of a microscope, and the hollow organ formation was evaluated by counting intersections of the randomly arrange points of Chalkley Grid with the formed hollow organ (by referring to the evaluation method of J. Pathol., 177, 275-283 (1995)). The counting was carried out at 12 positions per well, and the total was calculated.
As the agent to be tested, Compound 1 ((E)-[5-[2-[1-phenyl-1-(3-pyridyl)methylideneaminoxy]ethyl]-7,8-dihydronaphthalen-1-yloxy]acetic acid) was dissolved in dimethyl sulfoxide (DMSO) to prepare 10^−4, 10^−5 and 10^−6 mol/l solutions which were then used by diluting 1/1000 time with the culture medium.
As the VEGF-A (vascular endothelial growth factor-A), the 2 μg/ml solution of VEGF contained in the angiogenesis control reagent kit of Kurabo was diluted with the culture medium and used. […]

[5] = 20 μg into the sponge once a day, 15th day
[6] = after 72 hours of culturing, average of 3 wells ± SD

## CC#CCC(C)[C@H](O)/C=C/[C@@H]1[C@H]2c3cccc(CCCC(=O)O)c3O[C@H]2C[C@H]1O (mixture of isomers) [Beraprost, (±)-(1R,2R,3aS,8bS)-2,3,3a,8b-terahydro-2-hydroxy-1-[(E)-(3S,4RS)-3-hydroxy-4-methyl-1-octen-6-ynyl]-1H-cyclopenta[b]benzofuran-5-butanoic acid sodium salt]
[1]; in vitro
  endothelial cell growth action, in words: shows endothelial cell growth action
[1]; vascular endothelial cells in vitro
  HGF production, in words: increases HGF production in vascular endothelial cells in vitro

## CCC1(C(O)C/C=C/[C@@H]2[C@@H](C/C=C\CCCC(=O)O)[C@H](Cl)C[C@H]2O)CCC1 (stereo partly drawn) [Compound 3, (5Z,9β,11α,13E)-17,17-propano-11,16-dihydroxy-9-chloro-20-norprost-5,13-dienoic acid]
[2]; [5]
  Hemoglobin content: 4.588 ± 0.488 mg/g wet tissue
  Sponge wet weight: 0.5193 ± 0.0792 g
[2]; 20 μg
  formation of granulation in the sponge, in words: formation of granulation was found
[2]; 20 μg, vs polymer group
  hemoglobin concentration in the granulation tissue, in words: significant increase in the concentration of hemoglobin
[3]; 10 nmol/l and 100 nmol/l, vs untreated wells, Dunnett's test
  hollow organ formation (Chalkley Grid count), in words: significantly accelerated hollow organ formation
HGF; [6]
  HGF concentration in culture supernatant: 1865 ± 48 pg/mL
HGF; vs untreated, Dunnett's test
  HGF concentration in supernatants, in words: significantly increased HGF and VEGF concentrations
VEGF; [6]
  VEGF concentration in culture supernatant: 2762 ± 51 pg/mL
VEGF; vs untreated, Dunnett's test
  VEGF concentration in supernatants, in words: significantly increased HGF and VEGF concentrations

## HGF: human hepatocyte growth factor purchased from R & D System-Funakoshi; positive control agent
[4]
  hollow organ formation (Chalkley Grid count), in words: accelerated hollow organ formation
[3]; 10 ng/ml
  hollow organ formation (Chalkley Grid count), in words: accelerated hollow organ formation
